Consider 122 compounds from a melting point compilation (Tetko et al.).

A word on the melting point: it is the temperature of the solid-liquid transition. `CN1CCCN(C(=O)c2ccccc2N)CC1` yielded a melting point of 80 to 82 °C.

For `CC(C)(C)OC(=O)NC1CCN(C(=O)CC(F)(F)F)CC1`, the melting point was in the range of 147 to 149 °C.

In turn, `Cc1ccc(S(=O)(=O)CCC(=O)O)cc1` came in with a melting point of 108 to 110 °C.

In turn, `CCS(=O)(=O)c1ccc(S(=O)(=O)Cl)cc1` gave a melting point of 104 to 106 °C.

`Cc1cccc(S(=O)(=O)Cl)c1C#N` displayed a melting point of 74 to 76 °C.

`O=C1C=CC(=O)N1c1ccc(F)cc1` had a melting point of 160 to 162 °C.

`COC(=O)c1sccc1O` had a melting point of 49 to 51 °C.

`COc1cc(F)ccc1[N+](=O)[O-]` came in with a melting point of 49 to 51 °C.

For the compound `O=C(O)C1Cc2ccccc2CN1C(=O)c1ccco1` (configuration not stated), the melting point lay within 143 to 147 °C.

`O=[N+]([O-])c1ccc2c(S(=O)(=O)Cl)c[nH]c2c1`: the melting point was in the range of 173 to 175 °C.

Compound `COC(=O)c1cccc(NC(=O)CC(C)=O)c1` came in with a melting point of 75 to 77 °C.

For `c1cnc2c(c1)NCCC2`, the melting point was in the range of 103 to 105 °C.

As for `CC(Cl)C(=O)N1N=C(c2ccc(Cl)cc2)CC1c1ccco1` (configuration not stated), the melting point lay within 141 to 143 °C.

`Cn1cc(-c2cccc(N)n2)cn1` registered a melting point of 132 to 134 °C.

Compound `Cc1n[nH]c(C(=O)O)c1Br` displayed a melting point of 271 to 273 °C.

The compound `O=C(O)CSc1csc(-c2ccc(Br)cc2)n1` registered a melting point of 178 to 180 °C.

Compound `NCc1ccc(C(=O)N2CCNC(=O)C2)cc1` came in with a melting point of 143 to 145 °C.

Compound `CC1CC(C)CN(S(=O)(=O)c2ccc(S(=O)(=O)Cl)cc2)C1` (configuration not stated) yielded a melting point of 153 to 155 °C.

In the case of `ICc1cccc2cccnc12`, the melting point lay within 79 to 81 °C.

`O=c1[nH]cnc2scc(-c3ccc(F)cc3)c12` came in with a melting point of 231 to 233 °C.

The compound `Nc1ccc(OCc2ccco2)c(Cl)c1` displayed a melting point of 72 to 74 °C.

As for `Cc1cc(C)c2oc(N)nc2c1`, the melting point was in the range of 197 to 199 °C.

The compound `O=C(O)c1ccc(Oc2cccc(Cl)c2)cc1` displayed a melting point of 132 to 134 °C.

`OCc1cnn(-c2ccccc2)c1` yielded a melting point of 63 to 67 °C.

For `NNc1ccc(S(=O)(=O)C(F)(F)F)cc1`, the melting point fell in the range of 93 to 95 °C.

As for `Nc1nc2ccc(C(=O)O)cc2o1`, the melting point lay in the range of 337 to 339 °C.

`c1c[nH]c(C2CCNCC2)n1` returned a melting point of 176 to 178 °C.

`CSc1cc2c(cc1C=O)OCCO2` yielded a melting point of 112 to 114 °C.

With `Clc1c[nH]c2ccccc12`, the melting point lay in the range of 79 to 81 °C.

As for `CCNC(=O)Nc1cccc(F)c1C(=O)O`, the melting point lay in the range of 159 to 161 °C.

`Cc1ccc(-c2csc(NC(=O)CCl)n2)cc1` had a melting point of 169 to 171 °C.

For `O=c1oc2ccc(O)cc2s1`, the melting point lay within 171 to 173 °C.

With `CNS(=O)(=O)c1ccc(C(=O)O)cc1`, the melting point was 246 to 250 °C.

`Oc1ccc(I)nc1` returned a melting point of 185 to 187 °C.

As to `CC(C(=O)O)N1C(=O)NC2(CCCC2)C1=O` (configuration not stated), the melting point was 223 to 225 °C.

The compound `Cc1ccc(N2CCOC2=O)cc1N` gave a melting point of 124 to 126 °C.

The compound `CNC(=O)Cc1noc(CCl)n1` yielded a melting point of 89 to 91 °C.

Turning to `CC(=O)N(Cc1ccc(N)cc1)C(C)C`, the melting point lay within 110 to 112 °C.

`ClCc1nnc(-c2cccc(Br)c2)o1` came in with a melting point of 74 to 76 °C.

With `CCNC(=O)c1cccc(N)c1`, the melting point is 69 to 71 °C.

In turn, `c1ccc2c(c1)C1CCC2N1` came in with a melting point of 92 to 94 °C.

Take `O=C(O)c1c[nH]nc1C1CCCCC1`: the melting point lay in the range of 269 to 271 °C.

As to `Clc1ccc2c(n1)NCC2`, the melting point is 141 to 143 °C.

For `Nc1ncc2c(n1)CCC1(C2)OCCO1`, the melting point fell in the range of 215 to 217 °C.

`CC(C)c1ncc(Cl)c(C(=O)O)n1` showed a melting point of 129 to 131 °C.

Consider `CC(=O)CC(=O)Nc1cccc(C)c1C`, for which the melting point was in the range of 91 to 93 °C.

In turn, `Cc1cc(N)nc(S)n1` registered a melting point of 295 to 297 °C.

With `CC(=O)NC1CCC(N)CC1` (configuration not stated), the melting point is 129 to 131 °C.

The compound `CCOC(=O)c1cc(C)sc1NC(=O)CCl` had a melting point of 104 to 106 °C.

With `NS(=O)(=O)c1cccc2cnccc12`, the melting point lay within 222 to 224 °C.

Take `Nc1ccccc1OCC(F)(F)F`: the melting point fell in the range of 49 to 51 °C.

In turn, `NS(=O)(=O)c1c(Cl)nc2ccccn12` returned a melting point of 174 to 176 °C.

`CN(C)C(=O)Sc1ccc2c(c1)CCCC2=O` yielded a melting point of 99 to 101 °C.

`CS(=O)(=O)CC1(CBr)CCOCC1` showed a melting point of 97 to 99 °C.

`CCC(C)NS(=O)(=O)c1cccc(N)c1` (configuration not stated): the melting point is 89 to 91 °C.

`COc1cccc(-c2csc(=O)[nH]2)c1` returned a melting point of 154 to 156 °C.

`CCc1cc(Cl)nc(-c2ccccn2)n1`: the melting point lay within 79 to 81 °C.

Turning to `CCC(CC)c1nnc(N)s1`, the melting point was 158 to 160 °C.

Regarding `Cc1cccc(-n2nnc(C(=O)O)c2C)c1`, the melting point was 157 to 159 °C.

Turning to `CNC(=O)c1cc(OC)c(OC)cc1N`, the melting point lay in the range of 129 to 131 °C.

Consider `Cc1ccc2ncnc(O)c2c1`, for which the melting point lay in the range of 238 to 240 °C.

Compound `FC(F)(F)c1nc(S)c2ccccc2n1` gave a melting point of 214 to 216 °C.

`NC(=NO)c1ccc(Oc2ccccc2)nc1` displayed a melting point of 159 to 161 °C.

`O=C(O)c1cnn(-c2ccccc2F)c1` displayed a melting point of 160 to 162 °C.

In the case of `CCN(C(=O)OC(C)(C)C)C(C#N)c1cccnc1` (configuration not stated), the melting point is 66 to 68 °C.

`O=C(O)CCCc1ccc(Cl)cc1` came in with a melting point of 58 to 60 °C.

`O=C1NCCN2CCCC12` (configuration not stated): the melting point was in the range of 73 to 75 °C.

On to `CC(=O)c1ccc(NC(=O)NC(C)C)cc1`, for which the melting point fell in the range of 147 to 149 °C.

Turning to `CCOc1ccc(C(=O)CBr)cc1`, the melting point lay in the range of 57 to 59 °C.

Consider `CC(C)(C)C(=O)N1CCCC(C(=O)O)C1` (configuration not stated), for which the melting point was in the range of 179 to 181 °C.

Consider `CS(=O)(=O)CCOc1ccc(Br)cc1`, for which the melting point was in the range of 130 to 132 °C.

`CC(=O)c1csc(-c2csc(C)n2)c1` showed a melting point of 125 to 127 °C.

For the compound `COCc1nc(Cl)c2c(-c3ccccc3)csc2n1`, the melting point was in the range of 62 to 64 °C.

In turn, `Cc1cccc(-c2nc(N)n[nH]2)c1[N+](=O)[O-]` yielded a melting point of 242 to 244 °C.

With `CCOC(=O)c1c(NC(=O)CCl)sc(C(=O)OC(C)(C)C)c1C`, the melting point lay within 168 to 170 °C.

`Nc1ccc(F)c(NS(=O)(=O)c2ccccc2)c1` yielded a melting point of 143 to 145 °C.

For the compound `CC1CCN(S(=O)(=O)c2ccc(C(=O)O)cc2)CC1`, the melting point lay in the range of 180 to 182 °C.

Take `CCN(CC)C(=O)N1CCCC(C(=O)O)C1` (configuration not stated): the melting point lay within 94 to 96 °C.

The compound `CC(C)(C)OC(=O)NC1(C(=O)O)Cc2ccccc2C1` registered a melting point of 162 to 164 °C.

The compound `CC(=O)c1cc(Br)sc1C` had a melting point of 41 to 43 °C.

With `NCc1noc(-c2ccco2)n1`, the melting point is 143 to 145 °C.

Take `NNc1ccc2cccc(O)c2n1`: the melting point lay within 156 to 158 °C.

As to `Cc1nn(-c2cccc(C(F)(F)F)c2)c(C)c1C(=O)C(=O)O`, the melting point fell in the range of 191 to 193 °C.

Compound `NC(=O)c1ccc(-c2nn[nH]n2)cc1` had a melting point of 258 to 260 °C.

The compound `COc1cc(C(=O)O)ccc1OCC(C)C` displayed a melting point of 145 to 147 °C.

For `O=C(O)c1sccc1S(=O)(=O)N1CCCCC1CCO` (configuration not stated), the melting point fell in the range of 121 to 123 °C.

In turn, `Cc1sc2ncnc(Sc3ccccc3C(=O)O)c2c1C` displayed a melting point of 200 to 202 °C.

For `O=Cc1ccc(Oc2ccc([N+](=O)[O-])cc2Cl)c(F)c1`, the melting point is 81 to 83 °C.

For `O=C(O)Cc1cnn(-c2ccccc2)n1`, the melting point was in the range of 105 to 107 °C.

`O=C(c1cnoc1)c1ccccc1O` showed a melting point of 113 to 115 °C.

In turn, `CC1(C)CC(C)(C)c2cc(O)ccc21` registered a melting point of 99 to 101 °C.

As for `CC(=O)Nc1ccc(F)c(C(=O)O)c1`, the melting point is 259 to 261 °C.

On to `CC(C)c1c(C(=O)O)cnn1-c1ccc(C(F)(F)F)cn1`, for which the melting point is 168 to 170 °C.

Compound `CNS(=O)(=O)c1csc(C(=O)O)c1` registered a melting point of 170 to 172 °C.

Compound `CCOC(=O)c1sc(-c2cccc(Br)c2)cc1N` registered a melting point of 97 to 99 °C.

In turn, `NS(=O)(=O)c1ccc(C(=O)O)cn1` returned a melting point of 219 to 221 °C.

Compound `CC(C)(C#N)NS(C)(=O)=O` had a melting point of 61 to 63 °C.

In turn, `CC1CCCC1(N)C(N)=O` (configuration not stated) had a melting point of 64 to 66 °C.

In turn, `COc1ccc(-c2nnc(N)[nH]2)c(OC)c1` yielded a melting point of 214 to 216 °C.

The compound `CC(C)c1ccc(C(N)=S)cc1` yielded a melting point of 148 to 150 °C.

Take `CSc1ccc(C)c(C(=O)O)c1`: the melting point lay in the range of 128 to 130 °C.

As for `CSCCC(NC(=O)c1ccco1)C(=O)O` (configuration not stated), the melting point was in the range of 185 to 187 °C.

The compound `Nc1cc2c(cc1[N+](=O)[O-])OCC(=O)N2` displayed a melting point of 323 to 325 °C.

For `OCc1ccc(Cc2ccccc2)cc1`, the melting point is 37 to 39 °C.

In turn, `NNC(=O)N1CCSCC1` returned a melting point of 129 to 131 °C.

Turning to `CC(C)(C)OC(=O)Nc1ccc(C(=O)O)c(O)c1`, the melting point fell in the range of 158 to 160 °C.

`COc1ccccc1CC(C)=CC(=O)O` registered a melting point of 96 to 98 °C.

On to `CC(C)(C)OC(=O)N1CC(OS(C)(=O)=O)C1`, for which the melting point is 65 to 67 °C.

`Nc1nc2cc(Cl)ccc2n1CCCn1ccnc1` yielded a melting point of 229 to 231 °C.

`CC(Sc1ncccn1)C(=O)O` (configuration not stated) gave a melting point of 135 to 137 °C.

Compound `O=Cc1ccc(OCc2cccc(F)c2)cc1` registered a melting point of 45 to 47 °C.

In turn, `CC(C)(C)OC(=O)N1CCC(N2CCCC2C(=O)O)CC1` (configuration not stated) yielded a melting point of 169 to 171 °C.

Regarding `Cc1c(Cl)nn2c(C(F)(F)F)nnc2c1C`, the melting point lay within 93 to 95 °C.

With `O=C(O)c1nc(-c2cccs2)n(-c2ccc(F)cc2)n1`, the melting point fell in the range of 196 to 198 °C.

For the compound `Cc1ccncc1-n1ccnc1`, the melting point lay within 64 to 66 °C.

`Nc1ccc2c(c1)N1CCN=C1S2` returned a melting point of 201 to 204 °C.

`S=C1CCCCN1` gave a melting point of 92 to 94 °C.

Turning to `O=C(O)CCCOc1ccccc1Br`, the melting point is 87 to 89 °C.

Regarding `CNC(=O)CC(N)=S`, the melting point lay within 133 to 135 °C.

`O=C(O)c1ccc(Br)cc1I`: the melting point fell in the range of 170 to 172 °C.

`CC(=O)c1c[nH]cc1-c1ccccc1`: the melting point is 156 to 158 °C.

In turn, `COc1ccccc1N(C)S(=O)(=O)c1ccc(Cl)c(C(=O)O)c1` registered a melting point of 179 to 181 °C.
